Data from the supplement of paper PMC11482750.
± gives the standard deviation of the averaged measurements.

Key:
Assay in all cases: control-subtracted net OSN firing rate; higher = stronger neuronal activation
[1] = test system: S. montana pb1a-like
Description: (§1)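 Dose-response single sensillum recordings from pb1a (D. melanogaster Canton-S) and pb1a-like (Scaptomyza) maxillary palp OSNs. Odorants were given at 10^-5 to 10^-2 vol/vol in mineral oil (γ-hexalactone in DMSO) as 1 s pulses. The read-out is the control-subtracted net spikes/s in a 0.5 s window.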

[2] = test system: Canton-S pb1a
Description: as §1

[3] = test system: S. hsui pb1a-like
Description: as §1

[4] = test system: S. flava pb1a-like
Description: as §1

[5] = test system: S. pallida pb1a-like
Description: as §1

[6] = odorant dilution (vol/vol): 10^-2
[7] = odorant dilution (vol/vol): 10^-3
[8] = odorant dilution (vol/vol): 10^-4
[9] = odorant dilution (vol/vol): 10^-5

Row | SMILES | control-subtracted net OSN firing rate [1, 6] | control-subtracted net OSN firing rate [1, 7] | control-subtracted net OSN firing rate [1, 8] | control-subtracted net OSN firing rate [1, 9] | control-subtracted net OSN firing rate [2, 6] | control-subtracted net OSN firing rate [2, 7] | control-subtracted net OSN firing rate [2, 8] | control-subtracted net OSN firing rate [2, 9] | control-subtracted net OSN firing rate [3, 6] | control-subtracted net OSN firing rate [3, 7] | control-subtracted net OSN firing rate [3, 8] | control-subtracted net OSN firing rate [3, 9] | control-subtracted net OSN firing rate [4, 6] | control-subtracted net OSN firing rate [4, 7] | control-subtracted net OSN firing rate [4, 8] | control-subtracted net OSN firing rate [4, 9] | control-subtracted net OSN firing rate [5, 6] | control-subtracted net OSN firing rate [5, 7] | control-subtracted net OSN firing rate [5, 8] | control-subtracted net OSN firing rate [5, 9]
1 | CCC1CCC(=O)O1 (centres undefined) [γ-hexalactone] | 186 ± 42 spikes/s | 93.7 ± 28 spikes/s | 21.3 ± 13 spikes/s | -2 ± 9.8 spikes/s | 286 ± 56 spikes/s | 217 ± 84 spikes/s | 33 ± 18 spikes/s | 22.7 ± 15 spikes/s | 163 ± 14 spikes/s | 128 ± 14 spikes/s | 53 ± 17 spikes/s | 43.7 ± 11 spikes/s | 182 ± 37 spikes/s | 42.6 ± 26 spikes/s | 3.14 ± 9.9 spikes/s | -3.43 ± 8 spikes/s | 152 ± 15 spikes/s | 98.7 ± 50 spikes/s | 34.3 ± 35 spikes/s | 11.3 ± 15 spikes/s
2 | CC(C)CN=C=S [isobutyl isothiocyanate] | 164 ± 20 spikes/s | 84.7 ± 14 spikes/s | 17.3 ± 5.9 spikes/s | 2 ± 5.8 spikes/s | – | – | – | – | – | – | – | – | 179 ± 22 spikes/s | 93 ± 16 spikes/s | 23.3 ± 7.5 spikes/s | 5.67 ± 4.6 spikes/s | – | – | – | –
3 | C=CCN=C=S [allyl isothiocyanate] | 168 ± 26 spikes/s | 118 ± 33 spikes/s | 58.3 ± 35 spikes/s | 20 ± 9.4 spikes/s | 153 ± 42 spikes/s | 27 ± 7.3 spikes/s | 2 ± 5.9 spikes/s | -3.33 ± 5 spikes/s | 132 ± 49 spikes/s | 51.2 ± 27 spikes/s | 6.75 ± 6 spikes/s | -1 ± 12 spikes/s | 169 ± 40 spikes/s | 117 ± 38 spikes/s | 50 ± 28 spikes/s | 11.4 ± 14 spikes/s | 142 ± 25 spikes/s | 115 ± 44 spikes/s | 33.8 ± 19 spikes/s | 5.56 ± 14 spikes/s
4 | CCCCN=C=S [butyl isothiocyanate] | 124 ± 14 spikes/s | 42.3 ± 22 spikes/s | 10 ± 14 spikes/s | 0.667 ± 9.1 spikes/s | – | – | – | – | – | – | – | – | 146 ± 29 spikes/s | 65.7 ± 36 spikes/s | 21.7 ± 10 spikes/s | -4 ± 10 spikes/s | – | – | – | –
5 | CCC(C)N=C=S (centres undefined) [sec-butyl isothiocyanate] | 72.7 ± 9.3 spikes/s | 13.3 ± 9.4 spikes/s | -0.667 ± 7.1 spikes/s | 0.667 ± 4.8 spikes/s | – | – | – | – | – | – | – | – | 76.6 ± 22 spikes/s | 19.7 ± 11 spikes/s | 3.14 ± 6.4 spikes/s | -2.57 ± 5.9 spikes/s | – | – | – | –
6 | CCC/C=C/C=O [trans-2-hexenal] | 187 ± 11 spikes/s | 156 ± 23 spikes/s | 72 ± 19 spikes/s | 26.7 ± 4.8 spikes/s | 121 ± 35 spikes/s | 34.7 ± 14 spikes/s | 5 ± 3.5 spikes/s | -3 ± 6.4 spikes/s | 130 ± 48 spikes/s | 55.7 ± 31 spikes/s | 9 ± 11 spikes/s | 2.67 ± 11 spikes/s | 169 ± 30 spikes/s | 159 ± 33 spikes/s | 136 ± 33 spikes/s | 58.6 ± 19 spikes/s | 145 ± 31 spikes/s | 119 ± 40 spikes/s | 26.4 ± 24 spikes/s | 5.78 ± 13 spikes/s
7 | CCCC(=O)OCC [ethyl butyrate] | 236 ± 60 spikes/s | 150 ± 70 spikes/s | 42.5 ± 25 spikes/s | 7.5 ± 3.5 spikes/s | 211 ± 10 spikes/s | 209 ± 12 spikes/s | 76.3 ± 41 spikes/s | 12.9 ± 4.5 spikes/s | 150 ± 38 spikes/s | 118 ± 43 spikes/s | 46 ± 21 spikes/s | 11 ± 22 spikes/s | 208 ± 60 spikes/s | 170 ± 59 spikes/s | 52.8 ± 54 spikes/s | 2 ± 7.4 spikes/s | 142 ± 26 spikes/s | 135 ± 24 spikes/s | 111 ± 39 spikes/s | 20.2 ± 19 spikes/s
